# Assay results reported in patent publication USRE47689E1, “Compounds for treating spinal muscular atrophy” (PTC Therapeutics, Inc., priority 2011, dated 2019).
# How the values were obtained:
# [1] = test system: SMN2 minigene (full length SMN2 minigene mRNA containing SMN2 exon 7); experiment: SMN2 minigene mRNA splicing RT-qPCR assay in cultured cells; type: cell-based, human; settings: Homo sapiens, HEK293-H; HEK293H cells stably transfected with SMN2-A minigene; 24 hours; 7-point concentration curve; 1.5-fold relative to vehicle-treated cells; read-out: EC1.5x for production of full length SMN2 mRNA
# Outline: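 HEK293H cells stably carrying the SMN2-A minigene treated 24 h at 37° C with compound (DMSO, 200× stock), then lysed. Multiplex RT-qPCR (SMN primers 0.4 μM final; 40 cycles) measures full-length exon 7-containing minigene mRNA, normalized to GAPDH and to vehicle; EC1.5x derived and binned by stars.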
# Smn protein = Smn protein assay in cultured cells (SMN HTRF); type: cell-based, human; settings: 48 hours; for EC1.5x (concentration giving 1.5-fold Smn protein increase): SMA Type 1 patient fibroblast cells (GM03813), 7-point concentration curve, SMN HTRF, concentration producing 1.5 times Smn protein vs DMSO vehicle control, read-out: EC1.5x for Smn protein expression; for maximum fold (Fold) increase of Smn protein: SMA patient fibroblast cells, 7-point concentration data, fold increase relative to vehicle control (SMN HTRF)
# Outline: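 Lysates in RIPA with protease inhibitors are incubated overnight at room temperature with HTRF anti-SMN antibodies. EC1.5x is derived from fold increase in ΔF over vehicle.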
Compound,melting point,EC (1.5-fold) [1] [µM],EC1.5x (concentration giving 1.5-fold Smn protein increase) (Smn protein) [nM],maximum fold (Fold) increase of Smn protein (Smn protein)
"Cc1cn2cc(-c3cc4ccc(CCCNC5CCOC5)cc4oc3=O)nc2c(C)n1 (centres unmarked) [Compound 939, 3-(6,8-dimethylimidazo[1,2-a]pyrazin-2-yl)-7-[3-(tetrahydrofuran-3-ylamino)propyl]-2H-chromen-2-one]",177 to 180 °C,< 0.1,< 300,***** (fold increase >1.65)
"O=c1oc2cc(N3CCNCC3)ccc2cc1-c1cccc(N2CCCC2)n1 [Cpd 386, 7-(piperazin-1-yl)-3-[6-(pyrrolidin-1-yl)pyridin-2-yl]-2H-chromen-2-one]",190 to 192 °C,3 to 30,–,* (maximum fold increase of ≤1.2)
"CCN1CCC(c2ccc3cc(-c4cn5cc(C)nc(C)c5n4)c(=O)oc3c2)CC1 [Compound 749, 3-(6,8-dimethylimidazo[1,2-a]pyrazin-2-yl)-7-(1-ethylpiperidin-4-yl)-2H-chromen-2-one]",218 to 223 °C,< 0.1,< 300,***** (fold increase >1.65)
"O=c1oc2cc(N3CCNCC3)cc(F)c2cc1-c1nc2c(C(F)(F)F)cccc2o1 [Compound 254, 5-fluoro-7-(piperazin-1-yl)-3-[4-(trifluoromethyl)-1,3-benzoxazol-2-yl]-2H-chromen-2-one]",249 to 253 °C,0.3 to 1,–,* (maximum fold increase of ≤1.2)
"Cc1cn2cc(-c3cc4ccc(N5C[C@@H]6CCN(C)[C@@H]6C5)cc4oc3=O)cc2c(C)n1 [Compound 729, 3-(1,3-dimethylpyrrolo[1,2-a]pyrazin-7-yl)-7-[(3aS,6aS)-1-methylhexahydropyrrolo[3,4-b]pyrrol-5(1H)-yl]-2H-chromen-2-one]",173 to 175 °C,< 0.1,1000 to 3000,*** (fold increase between >1.35 and ≤1.5)
"Cc1nccn2cc(-c3cc4ccc(N5CCCN(C)CC5)cc4oc3=O)nc12 [Compound 558, 7-(4-methyl-1,4-diazepan-1-yl)-3-(8-methylimidazo[1,2-a]pyrazin-2-yl)-2H-chromen-2-one]",180 to 182 °C,< 0.1,300 to 1000,**** (fold increase between >1.5 and ≤1.65)
"Cc1cn2cc(-c3cc4c(F)cc(N5CCCN(C)CC5)cc4oc3=O)nc2cn1 [Compound 591, 5-fluoro-7-(4-methyl-1,4-diazepan-1-yl)-3-(6-methylimidazo[1,2-a]pyrazin-2-yl)-2H-chromen-2-one]",210 to 212 °C,< 0.1,< 300,***** (fold increase >1.65)
"Cc1cn2cc(-c3cc4ccc(N5CCNCC5)cc4oc3=O)nc2cn1 [Compound 567, 3-(6-methylimidazo[1,2-a]pyrazin-2-yl)-7-(piperazin-1-yl)-2H-chromen-2-one]",288 to 290 °C,< 0.1,< 300,***** (fold increase >1.65)
"Cc1ccc2nc(-c3cc4ccc(N5CCN(C(C)C)CC5)cc4oc3=O)cn2c1 [Compound 82, 3-(6-methylimidazo[1,2-a]pyridin-2-yl)-7-[4-(propan-2-yl)piperazin-1-yl]-2H-chromen-2-one]",260 °C (dec.),1 to 3,–,** (fold increase between >1.2 and ≤1.35)
"Cc1cn2cc(-c3cc4ccc(N5CCCN(C)CC5)cc4oc3=O)ccc2n1 [Compound 653, 7-(4-methyl-1,4-diazepan-1-yl)-3-(2-methylimidazo[1,2-a]pyridin-6-yl)-2H-chromen-2-one]",175 to 178 °C,0.1 to 0.3,–,*** (fold increase between >1.35 and ≤1.5)
"Cc1ccc2nc(-c3cc4ccc(N5C[C@@H](C)N[C@@H](C)C5)cc4oc3=O)cn2c1 [Compound 174, 7-[(3R,5S)-3,5-dimethylpiperazin-1-yl]-3-(6-methylimidazo[1,2-a]pyridin-2-yl)-2H-chromen-2-one]",235 to 237 °C,< 0.1,–,*** (fold increase between >1.35 and ≤1.5)
"Cc1cn2cc(-c3cc4ccc(N5C[C@H]6CCCN(C)[C@H]6C5)cc4oc3=O)nc2c(C)n1 [Compound 658, 3-(6,8-dimethylimidazo[1,2-a]pyrazin-2-yl)-7-[(4aR,7aR)-1-methyloctahydro-6H-pyrrolo[3,4-b]pyridin-6-yl]-2H-chromen-2-one]",232 °C,< 0.1,< 300,***** (fold increase >1.65)
"Cc1cn2cc(-c3cc4ccc(N5CCCN(C)CC5)cc4oc3=O)nc2c(C)n1 [Compound 519, 3-(6,8-dimethylimidazo[1,2-a]pyrazin-2-yl)-7-(4-methyl-1,4-diazepan-1-yl)-2H-chromen-2-one]",253 to 255 °C,< 0.1,< 300,***** (fold increase >1.65)
"C[C@@H]1CN(c2ccc3cc(-c4cn5cccnc5n4)c(=O)oc3c2)CCN1 [Compound 169, 3-(imidazo[1,2-a]pyrimidin-2-yl)-7-[(3R)-3-methylpiperazin-1-yl]-2H-chromen-2-one]",285 to 287 °C,0.3 to 1,1000 to 3000,*** (fold increase between >1.35 and ≤1.5)
"Cc1ccc2nc(-c3cc4ccc(CN5CCC(O)CC5)cc4oc3=O)cn2c1 [Compound 252, 7-[(4-hydroxypiperidin-1-yl)methyl]-3-(6-methylimidazo[1,2-a]pyridin-2-yl)-2H-chromen-2-one]",261 to 264 °C,3 to 30,–,** (fold increase between >1.2 and ≤1.35)
"COc1cccn2cc(-c3cc4ccc(N5CCCN(C)CC5)cc4oc3=O)nc12 [Compound 419, 3-(8-methoxyimidazo[1,2-a]pyridin-2-yl)-7-(4-methyl-1,4-diazepan-1-yl)-2H-chromen-2-one]",212 to 215 °C,0.3 to 1,–,** (fold increase between >1.2 and ≤1.35)
"CCN1CCN(c2ccc3cc(-c4cc5cc(C)nc(C)c5o4)c(=O)oc3c2)CC1 [Compound 788, 3-(5,7-dimethylfuro[2,3-c]pyridin-2-yl)-7-(4-ethylpiperazin-1-yl)-2H-chromen-2-one]",196 to 198 °C,< 0.1,< 300,**** (fold increase between >1.5 and ≤1.65)
"Cc1cn2cc(-c3cc4ccc(N5CCN6CCCCC6C5)cc4oc3=O)cc2c(C)n1 (centres unmarked) [Compound 683, 3-(1,3-dimethylpyrrolo[1,2-a]pyrazin-7-yl)-7-(octahydro-2H-pyrido[1,2-a]pyrazin-2-yl)-2H-chromen-2-one]",145 to 148 °C,< 0.1,< 300,**** (fold increase between >1.5 and ≤1.65)
"C[C@@H]1CN(c2ccc3cc(-c4cn5cc(Cl)ccc5n4)c(=O)oc3c2)C[C@H](C)N1 [Compound 105, 3-(6-chloroimidazo[1,2-a]pyridin-2-yl)-7-[(3R,5S)-3,5-dimethylpiperazin-1-yl]-2H-chromen-2-one]",220 to 225 °C,1 to 3,300 to 1000,**** (fold increase between >1.5 and ≤1.65)
"O=c1oc2cc(N3CCN4CCC[C@@H]4C3)ccc2cc1-c1cn2cccc(F)c2n1 [Compound 531, 3-(8-fluoroimidazo[1,2-a]pyridin-2-yl)-7-[(8aR)-hexahydropyrrolo[1,2-a]pyrazin-2(1H)-yl]-2H-chromen-2-one]",238 to 241 °C,0.3 to 1,–,** (fold increase between >1.2 and ≤1.35)
"Cc1cn2cc(-c3cc4ccc(N5CCN(C)[C@@H](C)C5)cc4oc3=O)ccc2n1 [Compound 675, 7-[(3S)-3,4-dimethylpiperazin-1-yl]-3-(2-methylimidazo[1,2-a]pyridin-6-yl)-2H-chromen-2-one]",205 to 207 °C,< 0.1,1000 to 3000,**** (fold increase between >1.5 and ≤1.65)
"C[C@H]1CN(c2ccc3cc(-c4cccc(C(F)(F)F)c4)c(=O)oc3c2)CCN1 [Compound 490, 7-[(3S)-3-methylpiperazin-1-yl]-3-[3-(trifluoromethyl)phenyl]-2H-chromen-2-one]",141 to 143 °C,1 to 3,–,* (maximum fold increase of ≤1.2)
"Cc1cnc2nc(-c3cc4ccc(N5CCCN(C)CC5)cc4oc3=O)cn2c1 [Compound 250, 7-(4-methyl-1,4-diazepan-1-yl)-3-(6-methylimidazo[1,2-a]pyrimidin-2-yl)-2H-chromen-2-one]",285 to 287 °C,0.1 to 0.3,1000 to 3000,*** (fold increase between >1.35 and ≤1.5)
